According to patent US20230192646A1, “DIHYDRO-CYCLOPENTA-ISOQUINOLINE DERIVATIVES” (UCB Biopharma SRL, priority 2019, published 2023):

Biological target: T1, IgE-Tb / sFcεR1α-AF488 (WT soluble IgE receptor FcεR1α) (Homo sapiens, UniProt P01854, N146Q/N252Q, form not given)
T1 construct: fused on or other part: LanthaScreen amine-reactive terbium chelate, chemically conjugated (about 4 Tb per IgE-Fc); a label, not a fusion
Experiment: In vitro FRET assay of IgE-Tb binding to sFcεR1α-AF488 (WT), 18 hours incubation (examples 17-35, 48-52 and 63)
Conditions: 0.75 nM IgE-Tb, 0.9 nM sFcεR1α-AF488; 18 hours at room temperature; read-out: FRET IC50 range
Description: 86 nmoles of IgE-Fc(N265Q, N371Q) (Young et al., 1995) at 172 μM in 100 mM NaHCO3, pH 9.5 was added to 1 mg of LanthaScreen™ Amine Reactive Tb Chelate (ThermoFisher catalogue number PV3583) and incubated for 16 hours at 20° C. The material was then buffer exchanged into Phosphate Buffered Saline (being, 137 mM NaCl, 2.7 mM KCl, 10 mM Na2HPO4, 1.8 mM K2HPO4, pH 7.4) and the material quantified and the degree of Tb conjugation determined by measuring the absorption at 280 nm and 343 nm.
To a solution of 1.32 μmoles WT FcεR1α, at 377 μM, in 100 mM NaOAc pH 5.5, was slowly added 50 mM sodium periodate (70 μL) in 100 mM NaOAc, pH 5.5, with gentle mixing, to give a final concentration of 1 mM. […]
175 nmoles of protein was added to 1 mg of Alexa Fluor™ 488 hydrazide (Invitrogen) and incubated for 18 hours at 22° C. with gentle mixing. […] The material was quantified, and the degree of Alexa Fluor™ 488 conjugation determined by measuring the absorption at 280 nm and 497 nm. […]
The aim was to measure binding of IgE-Tb to receptor, and the inhibition thereof by compounds, using an in vitro Fluorescence Resonance Energy Transfer (FRET) Assay. […]
Measurement of FRET for each well was carried out by exciting at 337 nm and measuring emission at 490/520 nm using a PHERAstar FSX plate reader (BMG Labtech). FRET ratio was calculated as follows: […]

T1 sequence (P01854 whole entry C105A/N146Q/N252Q, form open, the tested form may be a part): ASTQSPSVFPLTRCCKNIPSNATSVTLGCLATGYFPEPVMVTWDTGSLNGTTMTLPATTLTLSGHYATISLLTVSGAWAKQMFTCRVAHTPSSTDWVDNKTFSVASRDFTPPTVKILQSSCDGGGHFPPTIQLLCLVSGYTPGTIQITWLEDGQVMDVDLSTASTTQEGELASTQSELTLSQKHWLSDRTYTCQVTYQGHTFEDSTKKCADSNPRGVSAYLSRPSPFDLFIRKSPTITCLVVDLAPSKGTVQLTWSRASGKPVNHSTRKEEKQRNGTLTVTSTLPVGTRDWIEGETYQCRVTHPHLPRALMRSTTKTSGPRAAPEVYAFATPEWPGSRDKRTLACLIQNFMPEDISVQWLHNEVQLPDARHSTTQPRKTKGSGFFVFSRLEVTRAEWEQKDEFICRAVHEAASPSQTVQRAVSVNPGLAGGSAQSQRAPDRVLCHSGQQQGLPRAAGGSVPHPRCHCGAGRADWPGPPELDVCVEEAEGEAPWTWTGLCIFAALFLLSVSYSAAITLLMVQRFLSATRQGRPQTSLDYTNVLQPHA

COc1ccc(CNC(=O)N[C@H]2C[C@H](Nc3cncc(OC)c3)c3c2cc(S(=O)(=O)NCC(C)C)c2cc(C4CC4)ncc32)cc1 (racemic) [Example 18, 1-[(4-methoxyphenyl)methyl]-3-[trans-(7R,9RS)-3-cyclopropyl-9-[(5-methoxypyridin-3-yl)amino]-5-(2-methylpropylsulfamoyl)-8,9-dihydro-7H-cyclopenta[h]isoquinolin-7-yl]urea] was tested. Which IC50 did it give?
The IC50 was 1 to 10 nM.
